The nature of data set [1]: In vitro cytotoxicity by MTT assay, HEK 293. It is filed as cell-based, human. Particulars: human, HEK 293 cells, read-out: % cytotoxicity (100 − % cell survival) of HEK 293 cell line. In outline: (§1)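 Cells seeded at ~10,000/well in RPMI-1640 with 10 % newborn calf serum, grown 24 h, then exposed to compounds for 72 h at 37 °C, 5 % CO2. Viability read by MTT (4 h), formazan dissolved in propanol, absorbance at 490 nm.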
(In general: Tetrazolium dyes change colour on reduction, which living cells bring about.)

Data set [2] has as its system BT474 (breast cancer cell line). Kind of data set: In vitro cytotoxicity by MTT assay, BT474. It is filed as cell-based. Particulars: Homo sapiens, 72 h, read-out: % cytotoxicity (100 − % cell survival) of BT474 cell line. In outline:
as §1

The subject of data set [3] is HEK 293, M468 and NCI-H226. Description: In vitro cytotoxicity by MTT assay, summary over all cell lines. The settings on record: on all cell lines. It is filed as cell-based. As for the experimental part: The cancer cell line cultures of HEK 293 ([…]), BT474 (breast cancer cell line) and NCI-H226 (lung cancer) were obtained from Pasteur Institute of India, Coonoor, India, and were cultured in RPMI-1640 and 10 % heat-[…] New born calf serum with antibiotics [penicillin ([…]), streptomycin (100 μg/mL) and amphotericin B (25 μg/mL)]. The cells were maintained at 37 °C in a humidified atmosphere with 5 % CO2 and were subcultured twice a week.
The monolayer cell culture (100 μL) was trypsinized, and the cell count was adjusted to […] using medium containing 10 % new born calf serum. To each well of the 96-well microtitre plate, the diluted cell suspension (approximately 10,000 cells) (0.1 mL) was added and kept for 24 h in incubator at 37 °C in 5 % CO2 atmosphere for cell monolayer formation. After 24 h, when a partial monolayer was formed at the bottom of the well, the supernatant was flicked off, the monolayer was washed once, and different drugs, i.e. synthesized compounds (100 μL), were added to the cells in microtitre plates. The plates were then incubated at 37 °C for 3 days in 5 % CO2 atmosphere, and microscopic examination was carried out and observations recorded every 24 h. After 72 h, the sample solution in the wells was flicked off; MTT dye ([…]) was added to each well; plates were gently shaken and incubated for 4 h at 37 °C in 5 % CO2 incubator. The supernatant was removed and propanol (50 μL) was added; the plates were gently shaken to solubilize the formed formazan. The absorbance was measured using a microplate reader at a wavelength of 490 nm (Edmondson et al., [1988]; Prasad et al., [2005]; Chiruvella et al., [2008]; Chang et al., [2007]).

For data set [4], the system named is NCI-H226 (lung cancer cell line). Kind of data set: In vitro cytotoxicity by MTT assay, NCI-H226. The settings on record: Homo sapiens, 72 h, read-out: % Cytotoxicity (100 − % cell survival) of NCI-H226 cell line. It is filed as cell-based. Summed up: as §1
Data set [5] is described as follows: In vitro cytotoxicity by MTT assay, NCI-H226. It is filed as cell-based. Particulars: human, NCI-H226 lung cancer cells, 0.015 μM, read-out: % Cytotoxicity (100 − % cell survival) of NCI-H226 cell line. In outline: as §1
The nature of data set [6]: Lipid peroxidation inhibitory activity (egg lecithin liposomes, TBA). Particulars: Conc. ± SD; standard ascorbic acid; read-out: IC50 inhibitory concentration, Lipid peroxidation. It is filed as biochemical. How it is done:
Egg lecithin (3 mg/mL phosphate buffer, pH 7.4) was sonicated in an ultrasonic sonicator for 10 min to ensure proper liposome formation. Test samples or standard, ascorbic acid (100 μL) of different concentrations (10, 20, 30, 40 50 and 100 μg/mL) was added to liposome mixture (1 mL); the control was without test sample. Lipid peroxidation was induced by adding ferric chloride (10 μL, 400 mM) and L-ascorbic acid (10 μL, 200 mM). After incubation for 1 h at 37 °C, the reaction was stopped by adding hydrochloric acid (2 mL, 0.25 N) containing trichloroacetic acid (150 mg/mL), thiobarbituric acid (3.75 mg/mL) and butylated hydroxy anisole (0.50 mg/mL). The reaction mixture was subsequently boiled for 15 min, cooled and centrifuged at 1,000 rpm for 15 min, and the absorbance of the supernatant was measured at 532 nm (Duh and Yen, [1997]). The % inhibition at different concentrations was calculated by the following formula %Inhibition=[1-(Vt/Vc)]×100 where V t = mean absorption of test compound, V c = mean absorption of control.
The IC50 (nM/mL) value was derived from the % inhibition at different concentrations.

Data set [7] is described as follows: DPPH radical scavenging activity. It is filed as biochemical. The settings on record: Conc. ± SD; standard ascorbic acid; read-out: IC50 inhibitory concentration, DPPH radical. As for the experimental part:
Compounds of SC series were evaluated for their in vitro free radical scavenging activities by 2,2-diphenyl-1-picrylhydrazyl (DPPH) assay method (Blois, [1958]; Shishoo et al., [1999]; Chhajed et al., [2007]). To determine the free radical scavenging activity, a method based on the reduction of a methanolic solution of the coloured DPPH radical was used. To a set of test tubes containing methanol (3 mL), DPPH reagent (2 mg/mL) (50 μL) was added. The initial absorbance was measured. To these test tubes, methanolic solution of different test solutions (1 mg/mL) were added (10–50 μL). Ascorbic acid (0.5 mg/mL) was also added in the concentration of 10, 20, 30, 40, 50 and 100 μL. After 20 min, absorbance was recorded at 516 nm. The experiment was performed in triplicate. The percentage reduction in absorbance was calculated from the initial and final absorbance of each solution (Dhar and Taploo, [1982]).
Background: DPPH is a stable violet radical that fades when it is reduced.

Data set [8] is described as follows: Superoxide anion radical scavenging (NBT/NADH/PMS). It is filed as biochemical. The settings on record: Conc. ± SD; standard catechin; read-out: IC50 inhibitory concentration, Superoxide anion. How it is done:
Measurement of superoxide anion scavenging activity of the synthesized compound was taken based on the method described by Nishimiki et al. ([1972]) and slightly modified. […] The reaction mixture was incubated at 25 °C for 5 min, and the absorbance at 560 nm was measured against blank samples. Catechin was used as reference compound. All the experiments were performed in triplicate, and the results were averaged. The percentage of inhibition was determined by comparing the results of control and test samples. The IC50 (nM/mL) value are depicted in Table 1.

The nature of data set [9]: Total antioxidant activity (ABTS radical cation scavenging). It is filed as biochemical. Particulars: Conc. ± SD; three independent experiments in duplicate; standard trolox; read-out: IC50 inhibitory concentration, ABTS^+ radical. As for the experimental part:
The ability of the test sample to scavenge 2,2′-azinobis-(3-ethylbenzothiazoline-6-sulphonic acid) (ABTS^·+) radical cation was compared with 6-hydroxy-2,5,7,8-tetramethylchroman-2-carboxylic acid (trolox) standard (Chang et al., [2007]; Erel, [2004]; Re et al., [1999]). The ABTS^·+ radical cation was pregenerated by mixing ABTS stock solution (7 mM) with potassium persulphate (2.45 mM) (final concentration) and incubating for 12–16 h in the dark at room temperature until the reaction was complete and the absorbance was stable. The absorbance of the ABTS^·+ solution was equilibrated to 0.70 (±0.02) by diluting with water at room temperature, then 1 mL of solution was mixed with 10 μL of the test sample (0.05–10 mg/mL), and the absorbance was measured at 734 nm after 6 min. All experiments were repeated three times. The percentage inhibition of absorbance was calculated and plotted as a function of the concentration of standard and sample to determine the trolox equivalent antioxidant concentration (TEAC). To calculate the TEAC, the gradient of the plot for the sample was divided by the gradient of the plot for trolox. The IC50 inhibitory concentration (nM/mL) values of tested compounds are depicted in Table 1. The ABTS^·+ radical scavenging activity of the samples was expressed as S%=[(Acontrol-Asample)/Acontrol]×100 where A control is the absorbance of the blank control (ABTS^·+ solution without test sample), and A sample is the absorbance of the test sample.

This note sets out measurements from PMC3973950, “Synthesis of 5-arylidine amino-1,3,4-thiadiazol-2-[(N-substituted benzyol)]sulphonamides endowed with potent antioxidants and anticancer activity induces growth inhibition in HEK293, BT474 and NCI-H226 cells” (Medicinal Chemistry Research, 2013).

By melting point is commonly meant the temperature, or range, at which the solid turns liquid.

`O=C(NS(=O)(=O)c1nnc(N=Cc2ccco2)s1)c1ccccc1` [Compound 9j, N-({5-[(Furan-2-ylmethylidene)amino]-1,3,4-thiadiazol-2-yl}sulfonyl)benzamide] gave a melting point of 261 to 263 °C. In addition, the cytotoxicity at 72 h, 0.005 µM in data set [1] (0.005 μM) is 31.4%. Moreover, in [1] (0.015 μM), the cytotoxicity at 72 h, 0.015 µM is 32.8%. In addition, in data set [1] (0.045 μM), the cytotoxicity at 72 h, 0.045 µM was 33.7%. Moreover, the cytotoxicity at 72 h, 0.13 µM in [1] (0.13 μM) was found to be 34.3%. Moreover, the cytotoxicity at 72 h, 0.41 µM in data set [1] (0.41 μM) is 34.5%. For the same compound, the cytotoxicity at 72 h, 1.23 µM in data set [1] (1.23 μM) was found to be 35%. Also, the cytotoxicity at 72 h, 3.7 µM in [1] (3.7 μM) is 35.3%. In addition, in data set [1] (11.11 μM), the cytotoxicity at 72 h, 11.11 µM came to 36.1%. Also, the cytotoxicity at 72 h, 33.33 µM in data set [1] (33.33 μM) worked out at 36.9%. Besides, the cytotoxicity at 72 h, 100 µM in data set [1] (100 μM) came out at 38.9%. Besides, the cytotoxicity at 0.005 µM in data set [2] (BT-474, 0.005 μM) turned out to be 30.4%. Also, in data set [2] (BT-474, 0.015 μM), the cytotoxicity at 0.015 µM was found to be 34.6%. Besides, the cytotoxicity at 0.045 µM in data set [2] (BT-474, 0.045 μM) worked out at 37.4%. In addition, in data set [2] (BT-474, 0.13 μM), the cytotoxicity at 0.13 µM worked out at 40.1%. In [2] (BT-474, 0.41 μM), the cytotoxicity at 0.41 µM turned out to be 43.6%. The cytotoxicity at 1.23 µM in data set [2] (BT-474, 1.23 μM) was 45.1%. The cytotoxicity at 3.7 µM in [2] (BT-474, 3.7 μM) is 49.3%. The cytotoxicity at 11.11 µM in [2] (BT-474, 11.11 μM) came out at 52.1%. The cytotoxicity at 33.33 µM in data set [2] (BT-474, 33.33 μM) was 56.9%. In addition, the cytotoxicity at 100 µM in data set [2] (BT-474, 100 μM) turned out to be 61.4%. In addition, the “cytotoxic activity compared with all synthesized compounds” value in [3] is recorded as “more potent”. For the same compound, the cytotoxicity at 0.005 µM in data set [4] (NCI-H226, 0.005 μM) came out at 33%. The cytotoxicity at 0.045 µM in data set [4] (NCI-H226, 0.045 μM) was found to be 34.6%. The cytotoxicity at 0.13 µM in data set [4] (NCI-H226, 0.13 μM) is 35.3%. Moreover, the cytotoxicity at 0.41 µM in [4] (NCI-H226, 0.41 μM) was 36.1%. For the same compound, the cytotoxicity at 1.23 µM in data set [4] (NCI-H226, 1.23 μM) came out at 37%. For the same compound, the cytotoxicity at 3.7 µM in [4] (NCI-H226, 3.7 μM) came to 39.1%. Moreover, the cytotoxicity at 11.11 µM in data set [4] (NCI-H226, 11.11 μM) came out at 42.7%. The cytotoxicity at 33.33 µM in data set [4] (NCI-H226, 33.33 μM) was determined as 45.4%. The cytotoxicity at 100 µM in data set [4] (NCI-H226, 100 μM) was 52.4%. For the same compound, in data set [5], the cytotoxicity at 72 h, 0.015 µM worked out at 33.2%.
Regarding `O=C1O[C@H]([C@@H](O)CO)C(O)=C1O` [ascorbic acid, reference compound], the IC50 is 150 ± 16.9 µM in data set [6] and 187 ± 35.4 µM in data set [7].
Turning to `Oc1cc(O)c2c(c1)O[C@H](c1ccc(O)c(O)c1)[C@@H](O)C2` [catechin, reference compound], in data set [8], the IC50 was found to be 171 ± 9.1 µM.
`Cc1c(C)c2c(c(C)c1O)CCC(C)(C(=O)O)O2` (stereo not drawn) [trolox, 6-hydroxy-2,5,7,8-tetramethylchroman-2-carboxylic acid, reference compound]: the IC50 in data set [9] came out at 84.5 ± 9.39 µM.
